Experimental data: patent US12071648B2, “Ex vivo model of inflamed human skin and uses thereof for screening anti-inflammatory compounds” (GENOSKIN, priority 2017, dated 2024)

Legend:
Assay type in all cases: cell-based, human
[1] = tested on: ex vivo model of inflamed skin (Hypo-InflammaSkin); assay: Histology analysis (hematoxylin and eosin) of the Hypo-InflammaSkin model after subcutaneous injection
Protocol: In a second embodiment, the hypodermis is preserved. The biopsies (epidermis, dermis, and hypodermis), the thickness of which is about 1 cm, are then cut out using a metal punch. This second embodiment is for testing anti-inflammatory compounds by subcutaneous injection.
(§1) In order to test the relevance of the model of inflamed skin obtained by the method of the invention (Hypo-InflammaSkin®), an antibody known for its anti-inflammatory effect was tested. This is the adalimumab anti-TNFα antibody. Biopsies of inflamed skin (Hypo-InflammaSkin®−I) with a thickness of 1 cm were obtained by the method of the invention. A subcutaneous injection (namely into the […]) of 50 nM adalimumab was performed at TO (prophylactic treatment, Hypo-InflammaSkin®−I+anti-TNFα−P) or after 3 days of ex vivo culture of the inflamed biopsy (therapeutic treatment, Hypo-InflammaSkin®−I+anti-TNFα−T). After 7 days of ex vivo culture, the culture media are taken, and skin biopsies are fixed in a 10% formalin solution and then embedded in paraffin blocks. Serial sections of a constant thickness of 5 μm of the biopsies are made. The morphological appearance of the skin biopsies is studied under optical microscopy using hematoxylin and eosin staining. The presence of psoriasin (S110A7) is identified by fluorescence microscopy (Leica DM 5000 microscope) using an anti-S100A7 antibody coupled to a fluorochrome. […]

[2] = tested on: psoriasin (S100A7); assay: Psoriasin detection by fluorescence microscopy in the Hypo-InflammaSkin model; details: inflamed biopsy treated by subcutaneous injection of 50 nM, 7 days of ex vivo culture
Protocol: In order to test the relevance of the model of inflamed skin obtained by the method of the invention (Hypo-InflammaSkin®), an antibody known for its anti-inflammatory effect was tested. This is the adalimumab anti-TNFα antibody. Biopsies of inflamed skin (Hypo-InflammaSkin®−I) with a thickness of 1 cm were obtained by the method of the invention. A subcutaneous injection (namely into the […]) of 50 nM adalimumab was performed at TO (prophylactic treatment, Hypo-InflammaSkin®−I+anti-TNFα−P) or after 3 days of ex vivo culture of the inflamed biopsy (therapeutic treatment, Hypo-InflammaSkin®−I+anti-TNFα−T). After 7 days of ex vivo culture, the culture media are taken, and skin biopsies are fixed in a 10% formalin solution and then embedded in paraffin blocks. Serial sections of a constant thickness of 5 μm of the biopsies are made. The morphological appearance of the skin biopsies is studied under optical microscopy using hematoxylin and eosin staining. The presence of psoriasin (S110A7) is identified by fluorescence microscopy (Leica DM 5000 microscope) using an anti-S100A7 antibody coupled to a fluorochrome. The cell nuclei are marked with DAPI. Biopsies of non-inflamed skin (HypoSkin®−biopsies including the epidermis, dermis, and hypodermis) are used for control.

[3] = tested on: IL-22; assay: IL-22 secretion by the Hypo-InflammaSkin model
Protocol: (§2) The cytokines IL-17A, IL-22, and IFNγ produced by the model were analyzed in the culture media by an ELISA assay using a specific detection kit from Meso Scale Discovery (U-PLEX TH17 Combo 2 Human Reference K15076K) and using a multiplex assay platform (MESO QuickPlex SQ 120).
as §1

[4] = tested on: IL-17A; assay: IL-17A secretion by the InflammaSkin ex vivo model of inflamed skin, ELISA of culture media
Protocol: (§3) Using a clamp, the skin biopsy is held flat, with the dermis on top. A needle with no dead volume is inserted into the biopsy from the side of the dermis using a 701N or 705N Hamilton syringe (for 8 mm or 15 mm diameter biopsies, respectively). 10 μL or 35 μL of the activation solution (50 ng/μL anti-CD3 antibody, 50 ng/μL anti-CD28 antibody, and 10 ng/mL IL-2) for biopsies of 8 or 15 mm diameter, respectively, are injected from the side of the biopsy to avoid damage to the epidermis.
(§4) In WILLIAM'S E synthetic culture medium, the following supplements are added: 10 ng/mL IL-1β, 50 ng/mL IL-23, and 10 ng/mL TGFbeta. The culture is carried out for 7 days in a CO2 incubator at 37° C. The culture medium containing the supplements is changed daily.
as §2
(§5) In order to test the relevance of the model of inflamed skin obtained by the method of the invention, compounds known for their anti-inflammatory effect were tested. These are betamethasone di-propionate and the PDE4 inhibitor. […]

[5] = tested on: IL-22; assay: IL-22 secretion by the InflammaSkin ex vivo model of inflamed skin, ELISA of culture media
Protocol: as §3, §4, §2, §5

[6] = tested on: IFNγ; assay: IFNγ secretion by the InflammaSkin ex vivo model of inflamed skin, ELISA of culture media
Protocol: as §3, §4, §2, §5

[7] = tested on: TNFα; assay: TNFα secretion by the InflammaSkin ex vivo model of inflamed skin
[8] = tested on: ex vivo model of inflamed skin (InflammaSkin); assay: Histological analysis of the InflammaSkin model after topical treatment
Protocol: as §3, §4
The skin biopsy treated according to steps a) and b) of the method of the invention is dehydrated by an alcohol bath, and then passed through a xylene bath. A first bath in paraffin allows to replace the water previously contained in the skin explant by paraffin.
Serial sections of a thickness varying from 4 to 5 μm are then made along the entire length of the paraffin block containing the sample.
as §5

Q: How did the “integrity and structure of the skin, more particularly the epidermis, and epidermal cell viability” value ([1]; prophylactic treatment, subcutaneous injection of 50 nM at T0, 7 days of ex vivo culture (FIG. 13)) turn out when adalimumab was run?
A: Its value is “preserved”.

Q: What about the “integrity and structure of the skin, more particularly the epidermis, and epidermal cell viability” value ([1]; therapeutic treatment, subcutaneous injection of 50 nM after 3 days of culture, 7 days of ex vivo culture (FIG. 13)) of the same molecule?
A: The value was “preserved”.

Q: And the presence of psoriasin [2]?
A: The presence of psoriasin was “almost undetectable”.

Q: And the IL-22 secretion ([3]; prophylactic treatment, subcutaneous injection of 50 nM at T0, compared to untreated inflamed biopsy (FIG. 14))?
A: The IL-22 secretion was “strongly inhibited”.

Q: What about the IL-22 secretion ([3]; therapeutic treatment, subcutaneous injection of 50 nM after 3 days of culture, compared to untreated inflamed biopsy (FIG. 14)) of the same molecule?
A: Its IL-22 secretion is “strongly inhibited”.

Q: `CCC(=O)OCC(=O)[C@@]1(OC(=O)CC)[C@@H](C)C[C@H]2[C@@H]3CCC4=CC(=O)C=C[C@]4(C)[C@@]3(F)[C@@H](O)C[C@@]21C` [betamethasone di-propionate] was tested. Which IL-17A secretion ([4]; prophylactic treatment, topical 10 μL daily until 7th day of culture, compared to placebo control (FIG. 6A)) did it give?
A: The IL-17A secretion was “strongly inhibited”.

Q: And the IL-17A secretion ([4]; therapeutic treatment, topical from 3 days of culture, daily until 7th day (FIG. 6B))?
A: Its IL-17A secretion is “inhibits IL-17A secretion”.

Q: And the IL-22 secretion ([5]; prophylactic treatment, topical 10 μL daily until 7th day of culture, compared to placebo control (FIG. 7A))?
A: The IL-22 secretion was “strongly inhibited”.

Q: And the IL-22 secretion ([5]; therapeutic treatment, topical from 3 days of culture, daily until 7th day (FIG. 7B))?
A: The IL-22 secretion was “inhibits IL-22 secretion”.

Q: What about the IFNγ secretion ([6]; prophylactic treatment, topical 10 μL daily until 7th day of culture, compared to placebo control (FIG. 8A)) of the same molecule?
A: Its IFNγ secretion is “strongly inhibited”.

Q: And the IFNγ secretion ([6]; therapeutic treatment, topical from 3 days of culture, daily until 7th day (FIG. 8B))?
A: The IFNγ secretion was “inhibits IFNγ secretion”.

Q: What about the TNFα secretion ([7]; prophylactic treatment, topical 10 μL daily until 7th day of culture, compared to placebo control (FIG. 9A)) of the same molecule?
A: The TNFα secretion was “strongly inhibited”.

Q: And the TNFα secretion ([7]; therapeutic treatment, topical from 3 days of culture, daily until 7th day (FIG. 9B))?
A: The TNFα secretion was “strongly inhibited”.

Q: What about the “histological abnormalities in the epidermis” value ([8]; after 7 days of culture (FIG. 5 legend)) of the same molecule?
A: The value was “total absence of histological abnormalities in the epidermis”.

Q: What about the “integrity and structure of the skin, particularly the epidermis, and viability of epidermal cells” value ([8]; prophylactic treatment, compared to placebo controls (FIG. 5)) of the same molecule?
A: The value was “preserved”.
